# Data: patent US4242354A, “2-(2-Thenolythio)-propionylglycine: method for its preparation and pharmaceutical formulations containing said compound” (Mediolanum Farmaceutici S.r.L., priority 1978, dated 1980)
# Experiments:
# [1] = system: bromobenzene poisoning; test: Protective activity in the bromobenzene poisoning; format: in vivo, male rats (Sprague-Dawley)
# Procedure: Fifty male rats (Sprague-Dawley, 180-200 g bodyweight) were used for the investigation, subdivided into 5 groups, each consisting of 10 animals, given orally the following compounds
# (1) 5 percent gum arabic in tap water
# (2) 5 percent gum arabic in tap water
# (3) 2-(2-thenoylthio)-propionylglycine--200 mg/kg
# (4) 2-(2-thenoylthio)-propionylglycine--300 mg/kg
# Seven days later, the animals of the groups 2-3-4-[…] were given bromobenzene subcutaneously (150 mg/rat) while the remaining group (control) was given an equivalent volume of saline. Still seven days later, 5 of the animals of each group were given Nembutal (25 mg/kg/intraperitoneally), and the sleeping time was calculated.
# The remaining 5 animals of each group were given bromophthalein at the dose of 50 mg intravenously; thirty minutes later, the animals were sacrificed and both the present bromophthalein and SGPT (serum glutamic pyruvic transaminase) were established in the blood.
# [2] = physchem
# Procedure: (§1) The stability tests were carried out according to the Rogers' nonisothermic method suitably integrated by the evaluation of physical data, melting point, weight variation, and spectrophotometric assay. For each single compound, the tests were performed on a series of samples, with the weight of 100 milligrams, added for the wet tests with 1 ml of distilled water. […] The sample were kept in a thermostat at increasing temperatures, i.e. from 25° to 80° C. […] The temperature, programmed according to the Rogers' formula, resulted to be 40° C. at the end of the first hour, 50° C. at the end of the second hour, 57° C. at the end of the third hour, 63° C. at the end of the fourth hour, 69° C. at the end of the fifth hour, 73° C. at the end of the sixth hour, 77° C. at the end of the seventh hour and, as already specified, 80° C. at the end of the eighth hour.
# In the case of the wet-treated samples, the final weight was only established on the samples No. 10 brought to dryness at 60° C. under vacuum after an 8-hour heating.
# [3] = system: elderly patients; format: in vivo, man
# Procedure: The drug was assessed, with respect to its mucolytic action, on thirty elderly patients ([…], maximal 87, mean age 72). […] The improvement was assessed on the basis of the following parameters:
# decrease of the daily quantity of sputum;
# decrease of the viscosity of the sputum;
# increase of the Tiffeneau's index;
# improved value of the erythrocyte sedimentation rate.
# A group of twenty patients, in the same mean age, was given for control purposes a known drug such as N-acetylcysteine.
# [4] = system: citric acid-induced experimental bronchitis; test: Experimental bronchitis due to citric acid in the guinea-pig; format: in vivo, spotted guinea-pigs, Morini strain; design: key to Microscopic Examination (Table 12), significance vs. controls (S) / Visualization of the bronchial tract, significance vs. controls (S) / Microscopic Examination (Table 14), significance vs. controls (S): h.s.: highly significant; Microscopic Examination score (Table 12; E, mean ± standard error) / Visualization of the bronchial tract score (E, mean ± standard error) / Microscopic Examination score (Table 14; E, mean ± standard error): scale not given here; conditions: 50 mg/kg; for Microscopic Examination score (Table 12; E, mean ± standard error): control 4.00 ± 0.25; for Microscopic Examination score (Table 14; E, mean ± standard error): control 3.00 ± 0.00; for Visualization of the bronchial tract score (E, mean ± standard error): control 2.83 ± 0.16
# Procedure: Twenty-four spotted guinea-pigs, Morini strain, bodyweight 450 grams approximately, were used for the investigation, subdivided into 4 groups, each consisting of 6 animals, subjected to the following treatments:
# Group 1: poisoning treatment with citric acid
# The poisoning was made introducing the experimental animals into tight-sealed plexiglass cages containing a solution of 7.5 percent citric acid for 15 minutes daily, 6 days weekly, for 4 weeks.
# The animals were sacrificed on the day after the last application, and the lungs were subjected to the same treatments and to the same assessments performed with the same scores already used in the case of the rat.
# [5] = Rogers' nonisothermic method: energies of activation, specific velocities, validity periods; format: physicochemical; conditions: for stability vs 2-thiopropionylglycine (II): comparison of the two compounds
# Procedure: as §1
# The data shown in Table 7 were worked out according to the Rogers' method, drawing up the values of the energies of activation of the decomposition reactions under dry and wet conditions, the specific rate constants as well as the validity period.
# [6] = system: mercuric chloride; test: In vivo protective action against mercurial compounds; design: species or system male mice (Swiss strain); conditions: mercuric chloride 20 mg/kg ip, mice, 24 hours
# Procedure: Forty male mice (Swiss strain, 22 grams mean bodyweight) were used for the investigation, subdivided into 4 groups treated as follows:
# (1) mercuric chloride, 20 mg/kg/intraperitoneally;
# (4) mercuric chloride 20 mg/kg/intraperitoneally+2-thiopropionylglycine 300 mg/kg/intraperitoneally.
# Deaths occurred were recorded hourly in the first 5 hours, and thereafter after 24 hours.
# [7] = Solubility and organoleptic properties; format: physicochemical
# [8] = system: bronchopneumopathies of the pediatric age; test: Clinical trials in pediatry, mucolytic efficacy in bronchopneumopathies; format: in vivo, man; conditions: decrease from 292.4±92.1 g/Hg, pediatric patients
structure (smiles),measurement,setting,value
"CC(SC(=O)c1cccs1)C(=O)NCC(=O)O (stereo not shown) [compound (I), 2-(2-thenoylthio)-propionylglycine]",serum concentrations of SGPT,"[1]; oral, 200 and 300 mg/kg, bromobenzene-poisoned rat",significant reduction of the serum concentrations of SGPT
same,liver impairment induced by bromobenzene,"[1]; oral, 200 and 300 mg/kg, rat",able to reduce the liver impairment
same,sleeping time (Nembutal),"[1]; oral, 200 and 300 mg/kg, Nembutal 25 mg/kg ip",statistically significant decrease of the sleeping time
same,rate of excretion of bromophthalein,"[1]; vs poisoned controls, bromophthalein 50 mg iv, 30 minutes",less evident
same,Content,[2],100.0%
same,E at 292 nm,[2]; as such,0.438
same,remaining at 1.5 h,[2]; dry,99.8%
same,remaining at 3 h,[2]; dry,99.8%
same,remaining at 5.25 h,[2]; dry,100%
same,remaining at 8 h,[2]; dry,99.8%
same,E at 292 nm,"[2]; sample 1, dry",0.440
same,E at 292 nm,"[2]; sample 2, dry",0.435
same,E at 292 nm,"[2]; sample 3, dry",0.440
same,E at 292 nm,"[2]; sample 4, dry",0.440
same,E at 292 nm,"[2]; sample 6, wet",0.455
same,E at 292 nm,"[2]; sample 7, wet",0.450
same,E at 292 nm,"[2]; sample 8, wet",0.435
same,E at 292 nm,"[2]; sample 9, wet",0.412
same,rapidity of action vs N-acetylcysteine,[3]; elderly patients,markedly better in terms of rapidity of action
same,fit of cough on aerosol administration,[3]; in vivo,no fit of cough was observed
same,patients with a marked improvement,"[3]; of thirty elderly patients, two suppositories daily, each 0.36 grams, six days",Twenty-six
same,"Microscopic Examination (Table 12), significance vs. controls (S)","[4]; Table 12, group 2, orally",h.s.
same,"Microscopic Examination score (Table 12; E, mean ± standard error)","[4]; Table 12, group 2, orally",2.00 ± 0.36
same,"Microscopic Examination (Table 12), significance vs. controls (S)","[4]; Table 12, group 3, aerosol",h.s.
same,"Microscopic Examination score (Table 12; E, mean ± standard error)","[4]; Table 12, group 3, aerosol",2.33 ± 0.49
same,"Microscopic Examination (Table 12), significance vs. controls (S)","[4]; Table 12, group 4, rectally",h.s.
same,"Microscopic Examination score (Table 12; E, mean ± standard error)","[4]; Table 12, group 4, rectally",1.83 ± 0.40
same,"Microscopic Examination (Table 14), significance vs. controls (S)","[4]; Table 14, group 2, orally",h.s.
same,"Microscopic Examination score (Table 14; E, mean ± standard error)","[4]; Table 14, group 2, orally",0.83 ± 0.30
same,"Microscopic Examination (Table 14), significance vs. controls (S)","[4]; Table 14, group 3, aerosol",h.s.
same,"Microscopic Examination score (Table 14; E, mean ± standard error)","[4]; Table 14, group 3, aerosol",1.00 ± 0.36
same,"Microscopic Examination (Table 14), significance vs. controls (S)","[4]; Table 14, group 4, rectally",h.s.
same,"Microscopic Examination score (Table 14; E, mean ± standard error)","[4]; Table 14, group 4, rectally",0.66 ± 0.42
same,"Visualization of the bronchial tract, significance vs. controls (S)","[4]; group 2, orally",h.s.
same,"Visualization of the bronchial tract score (E, mean ± standard error)","[4]; group 2, orally",1.16 ± 0.30
same,"Visualization of the bronchial tract, significance vs. controls (S)","[4]; group 3, aerosol",h.s.
same,"Visualization of the bronchial tract score (E, mean ± standard error)","[4]; group 3, aerosol",1.00 ± 0.36
same,"Visualization of the bronchial tract, significance vs. controls (S)","[4]; group 4, rectally",h.s.
same,"Visualization of the bronchial tract score (E, mean ± standard error)","[4]; group 4, rectally",1.00 ± 0.44
same,"protective action, experimental bronchitis (citric acid)",[4]; guinea-pig,marked protective action
same,stability vs 2-thiopropionylglycine (II),[5]; listed as 2-(2-thenoylthio)-propionyl-glycine (I),markedly better stability
same,stability vs 2-thiopropionylglycine (II),[5]; listed as 2-(2-thenoylthio)-propionylglycine (I),markedly more stable than the correspondent 2-thiopropionylglycine (II)
same,Energy of activation of the decomposition reaction,[5]; dry,12.28 kcal/mol
same,Validity period,[5]; dry,unlimited
same,K at 25° (specific rate constant),"[5]; dry, 25°",0 h⁻¹
same,Energy of activation of the decomposition reaction,[5]; wet,13.27 kcal/mol
same,deaths,[6]; 200 mg/kg ip,10%
same,deaths,[6]; 300 mg/kg ip,10%
same,odor,[7],odorless
same,taste,[7],practically tasteless
same,appearance in water,[7]; 100 milligrams with 1 ml of distilled water,white suspension
same,solubility,[7]; all other inorganic solvents (so in the source),scarcely soluble
same,solubility,[7]; chloroform,soluble
same,solubility,[7]; saturated solution of NaHCO3,soluble
same,mean viscosimetric value of the mucus after treatment,[8],155.4±61.3 g/Hg
